# Data published in patent US20250147039A1, “Compounds for complexation of rare earth elements and/or s-, p-, d- block metals, their coordination compounds, peptide conjugates, method of their preparation and use thereof” (USTAV ORGANICKE CHEMIE A BIOCHEMIE AV CR V.V.I., priority 2021, published 2025).
# What was measured:
# [1] = Formation of 1,5-cz-[M(Lig)] from Lig and M^III ions (metal dependent click-zip) (Charts 4, 5); format: physicochemical; settings: MOPS/NaOH buffer pH 7.0, TD728, TD827 in 50% i-PrOH; for conversion to 1,5-cz-[M(Lig)], Y^III: TD714 sum of two diastereoisomers
# [2] = Formation of 1,5-cz-[Ln(Lig)] from Lig and Ln^III ions (metal dependent click-zip), MOPS/NaOH buffer pH 7.0, analytical HPLC (Charts 1, 2); settings: MOPS/NaOH buffer pH 7.0
"conversion to 1,5-cz-[M(Lig)], Sc^III ([1]; 1 week at 80° C.) [%]","conversion to 1,5-cz-[M(Lig)], Y^III ([1]; 1 week at 80° C.) [%]","conversion to 1,5-cz-[M(Lig)], Sc^III ([1]; 1 hour at 80° C.) [%]","conversion to 1,5-cz-[M(Lig)], Y^III ([1]; 1 hour at 80° C.) [%]","conversion to 1,5-cz-[Ln(Lig)], Ce^III ([2]; after 1 week at 80° C.) [%]","conversion to 1,5-cz-[Ln(Lig)], Ce^III ([2]; after 1 hour at 80° C.) [%]","conversion to 1,5-cz-[Ln(Lig)], Dy^III ([2]; after 1 week at 80° C.) [%]","conversion to 1,5-cz-[Ln(Lig)], Dy^III ([2]; after 1 hour at 80° C.) [%]","conversion to 1,5-cz-[Ln(Lig)], Er^III ([2]; after 1 week at 80° C.) [%]","conversion to 1,5-cz-[Ln(Lig)], Er^III ([2]; after 1 hour at 80° C.) [%]","conversion to 1,5-cz-[Ln(Lig)], Eu^III ([2]; after 1 week at 80° C.) [%]","conversion to 1,5-cz-[Ln(Lig)], Eu^III ([2]; after 1 hour at 80° C.) [%]","conversion to 1,5-cz-[Ln(Lig)], Gd^III ([2]; after 1 week at 80° C.) [%]","conversion to 1,5-cz-[Ln(Lig)], Gd^III ([2]; after 1 hour at 80° C.) [%]","conversion to 1,5-cz-[Ln(Lig)], Ho^III ([2]; after 1 week at 80° C.) [%]","conversion to 1,5-cz-[Ln(Lig)], Ho^III ([2]; after 1 hour at 80° C.) [%]","conversion to 1,5-cz-[Ln(Lig)], La^III ([2]; after 1 week at 80° C.) [%]","conversion to 1,5-cz-[Ln(Lig)], La^III ([2]; after 1 hour at 80° C.) [%]","conversion to 1,5-cz-[Ln(Lig)], Lu^III ([2]; after 1 week at 80° C.) [%]","conversion to 1,5-cz-[Ln(Lig)], Lu^III ([2]; after 1 hour at 80° C.) [%]",SMILES,other results
14,71,3,9,1,0,65,5,91,17,14,1,19,2,82,9,2,0,96,49,[N-]=[N+]=NCc1cc(-c2ccccc2)cc(CN2CCN(CC(=O)O)CCN(Cc3cccc(C#CCN)n3)CCN(CC(=O)O)CC2)n1 [TD722],"conversion to 1,5-cz-[Ln(Lig)], Nd^III ([2]; after 1 week at 80° C.): 4%; conversion to 1,5-cz-[Ln(Lig)], Nd^III ([2]; after 1 hour at 80° C.): 0%; conversion to 1,5-cz-[Ln(Lig)], Pr^III ([2]; after 1 week at 80° C.): 3%; conversion to 1,5-cz-[Ln(Lig)], Pr^III ([2]; after 1 hour at 80° C.): 0%; conversion to 1,5-cz-[Ln(Lig)], Sm^III ([2]; after 1 week at 80° C.): 9%; conversion to 1,5-cz-[Ln(Lig)], Sm^III ([2]; after 1 hour at 80° C.): 1%; conversion to 1,5-cz-[Ln(Lig)], Tb^III ([2]; after 1 week at 80° C.): 54%; conversion to 1,5-cz-[Ln(Lig)], Tb^III ([2]; after 1 hour at 80° C.): 3%; conversion to 1,5-cz-[Ln(Lig)], Tm^III ([2]; after 1 week at 80° C.): 96%; conversion to 1,5-cz-[Ln(Lig)], Tm^III ([2]; after 1 hour at 80° C.): 27%; conversion to 1,5-cz-[Ln(Lig)], Yb^III ([2]; after 1 week at 80° C.): 96%; conversion to 1,5-cz-[Ln(Lig)], Yb^III ([2]; after 1 hour at 80° C.): 38%"
0,0,0,4,0,0,0,8,0,12,0,2,0,3,0,10,0,0,0,5,C#Cc1cccc(CN2CCN(CC(N)=O)CCN(Cc3cc(-c4ccccc4)cc(CN=[N+]=[N-])n3)CCN(CC(N)=O)CC2)n1 [TD779],"conversion to 1,5-cz-[Ln(Lig)], Nd^III ([2]; after 1 week at 80° C.): 0%; conversion to 1,5-cz-[Ln(Lig)], Nd^III ([2]; after 1 hour at 80° C.): 0%; conversion to 1,5-cz-[Ln(Lig)], Pr^III ([2]; after 1 week at 80° C.): 0%; conversion to 1,5-cz-[Ln(Lig)], Pr^III ([2]; after 1 hour at 80° C.): 0%; conversion to 1,5-cz-[Ln(Lig)], Sm^III ([2]; after 1 week at 80° C.): 0%; conversion to 1,5-cz-[Ln(Lig)], Sm^III ([2]; after 1 hour at 80° C.): 1%; conversion to 1,5-cz-[Ln(Lig)], Tb^III ([2]; after 1 week at 80° C.): 0%; conversion to 1,5-cz-[Ln(Lig)], Tb^III ([2]; after 1 hour at 80° C.): 6%; conversion to 1,5-cz-[Ln(Lig)], Tm^III ([2]; after 1 week at 80° C.): 0%; conversion to 1,5-cz-[Ln(Lig)], Tm^III ([2]; after 1 hour at 80° C.): 9%; conversion to 1,5-cz-[Ln(Lig)], Yb^III ([2]; after 1 week at 80° C.): 0%; conversion to 1,5-cz-[Ln(Lig)], Yb^III ([2]; after 1 hour at 80° C.): 9%"
